Data: patent publication US8846329B1, “Microorganisms for producing organic acids” (Wisconsin Alumni Research Foundation, priority 2012, dated 2014)
Converted amounts (≈) assume the structure as drawn. Read-outs that look alike come from different tables or passages of the source.

How the values were obtained:
[1] = test system: PCC 7002 acsA:BC glpK::acsA aadA; test: Minimum inhibitory concentration, acsA complementation strain; assay type: cell-based, Synechococcus sp. PCC 7002; conditions: Synechococcus, read-out: Minimum inhibitory concentration
Method: (§1) Deletion and complementation studies were performed in various Synechococcus spp. and Synechocystis spp. Replacement of the gene acsA in Synechococcus sp. […] An identical level of increase was observed when acsA was replaced with a 20 base-pair barcode sequence. This phenotype was complemented in an acsA deletion strain by expression of acsA under the native promoter in another locus on the chromosome (glpK).

[2] = test system: AcsA; test: Acyl-CoA ligase activity assay; assay type: biochemical, Synechococcus sp. PCC 7002; conditions: 2 mM organic acid, 500 nM AcsA, CoA consumed in 4 min relative to acetate
Method: Acyl-CoA ligase purification: Escherichia coli BL21 containing plasmid pET28b with acsA were grown in 50 mL of LB to an OD600 nm of 0.6 and induced with 1 mM IPTG. The induced culture was shaken at 37° C. for 3 hrs. The culture was centrifuged and the resulting cell pellet was frozen at −20° C. The cell pellet was processed with Novagen BugBuster Protein Extraction Reagent (Part No. 70584-3). The resulting soluble protein fraction was used for His-tag purification using Ni-NTA agarose beads (Qiagen) and Pierce 0.8-mL centrifugation columns (Part No. 89868). Washes were done with 50 mM NaH2PO4, 300 mM NaCl, and 30 mM imidizole pH 8.0. The his-tagged protein was eluted with 50 mM NaH2PO4, 300 mM NaCl, and 250 mM imidizole pH 8.0. The insoluble fraction from the protein extraction was washed twice with BugBuster reagent followed by incubation with 400 μL 8M urea, 100 mM Tris-HCl, and 100 mM β-mercaptoethanol pH 8.2 for 30 min. The resulting solution was centrifuged at 16,000×g and the supernatant was collected. Protein fractions were run on a SDS-PAGE gel. His-tag purified protein fractions used in the acyl-CoA ligase assay were concentrated and buffered exchanged using an Amicon Ultra-4 centrifugation column. The buffer used for enzyme storage contained 0.1M NaH2PO4, 1 mM EDTA, and 10% v/v glycerol.
Acyl-CoA ligase activity assay: Acyl-CoA ligase activity was determined by measuring the loss of free Coenzyme A (CoA) over time using Ellman's reagent. (Riddles P W, Blakeley R L, & Zerner B (1979) Ellman's reagent: 5,5′-dithiobis(2-nitrobenzoic acid)—a reexamination. Analytical Biochemistry 94(1):75-81.) The enzyme reaction contained 10 mM ATP, 8 mM MgCl2, 3 mM CoA, 0.1 M NaH2PO4, 1 mM EDTA, and 2 mM of the organic acid species. The concentration of AcsA in the reaction was 500 nM. Relative activity was determined by the amount of CoA consumed in 4 min relative to an acetate control.

[3] = test system: Synechococcus sp. PCC 7002; test: Minimum inhibitory concentration of organic acids / growth inhibition; assay type: cell-based; conditions: for MIC: Synechococcus; for Minimum inhibitory concentration: Table 3
From the text: (§2) One aspect of the increased tolerance to organic acids is an increase in the minimal inhibitory concentration (MIC) of a particular organic acid compared to a corresponding microorganism. MIC is the lowest concentration of an agent that will inhibit growth of a microorganism. An MIC can be determined by titrating the agent in the growth medium of the microorganism. The lowest concentration of the agent in which the microorganism is no longer able to grow is the MIC. Methods of culturing microorganisms and of detecting their growth are well known in the art and are not discussed in detail herein.
(§3) The minimum inhibitory concentrations (MIC) for PCC 7002, Synechococcus sp. PCC 7942, and Synechocystis sp. PCC 6803 were determined for acrylic acid, 3HP, and propionic acid at a pH of about 8 (Table 1).

[4] = test system: Synechocystis sp. PCC 6803; test: Minimum inhibitory concentration of organic acids; assay type: cell-based; conditions: for MIC: Synechocystis; for Minimum inhibitory concentration: Table 3
From the text: as §2
(§4) Because of this, the toxicity of organic acids generally increases with the hydrophobicity of the compound [35]. The minimum inhibitory concentrations (MIC) for PCC 7002, Synechococcus sp. PCC 7942, and Synechocystis sp. PCC 6803 were determined for acrylic acid, 3HP, and propionic acid at a pH of about 8 (Table 1). […] The low MIC for acrylic acid explains why cultures grown with DMSP become growth inhibited. Cultures with DMSP only show growth inhibition when the accumulating acrylic acid concentration reaches inhibitory concentrations.
(§5) Homologous genes were identified in the cyanobacteria Synechocystis sp. PCC 6803 (s110542; SEQ ID NOS:3 and 4) and Synechococcus sp. PCC 7942 (SYNPCC7942—1342; SEQ ID NOS:5 and 6). […] When selecting for growth of Synechocystis sp. PCC 6803 on 50 μM acrylic acid, the mutation frequency was 2×10^−6.

[5] = test system: PCC 7002 acsA::aadA; test: microbe, parasite or virus in culture; assay type: cell-based, Synechococcus sp. PCC 7002; conditions: for Increase in MIC on functional deletion of the acsA gene product: Synechococcus sp. PCC 7002, pH of about 8
Method: This hypothesis was tested by creating a knockout mutant of the acsA gene. This knockout was created by transforming wild type PCC 7002 with a DNA construct that would replace the acsA gene with an antibiotic resistance marker through homologous recombination. The resulting mutant, ΔacsA, was challenged with concentrations of acrylic acid, 3HP, and propionic acid above WT PCC 7002 MIC levels.
Deletion and complementation studies were performed in various Synechococcus spp. and Synechocystis spp. Replacement of the gene acsA in Synechococcus sp.

[6] = test system: PCC 6803 sll0542::KmR; test: Minimum inhibitory concentration, deletion strain; assay type: cell-based, Synechocystis sp. PCC 6803; conditions: Synechocystis; Table 3
Method: as §1, §5

[7] = test system: Synechococcus sp. PCC 7942; test: Minimum inhibitory concentration of organic acids; assay type: cell-based; conditions: for MIC: Synechococcus; for Minimum inhibitory concentration: Table 3
From the text: as §2, §4

[8] = test system: PCC 7002 A^+; test: Minimum inhibitory concentration, spontaneous acrylic acid-tolerant mutant; assay type: cell-based, Synechococcus sp. PCC 7002
Method: as §3

[9] = cited from earlier work
[10] = test system: PCC 7002 acsA::BC; test: Minimum inhibitory concentration, acsA barcode replacement strain; assay type: cell-based, Synechococcus sp. PCC 7002; conditions: Synechococcus, read-out: Minimum inhibitory concentration
Method: as §1

[11] = test system: PCC 7002 acsA::BC glpK::acsAW49L aadA; test: Minimum inhibitory concentration, acsAW49L complementation strain; assay type: cell-based, Synechococcus sp. PCC 7002; conditions: Synechococcus, read-out: Minimum inhibitory concentration
Method: as §1

[12] = SP.PCC7002, read-out: Minimum inhibitory concentration
[13] = SP.PCC6803, read-out: Minimum inhibitory concentration
[14] = SP.PCC7942, read-out: Minimum inhibitory concentration

Structure (SMILES) | MIC [1] | Acyl-CoA ligase activity of AcsA towards substrate [2] | MIC [3, 12] | Minimum inhibitory concentration [3] | MIC [4, 13] | Increase in MIC on functional deletion of the acsA gene product [5] | MIC [6] | MIC [7, 14] | Minimum inhibitory concentration [7] | Minimum inhibitory concentration [4] | also measured
O=C(O)CCO [3HP, 3-hydroxypropionic acid] | 15000 µM (≈ 1350 µg/mL) | has an activity | 10000 µM (≈ 901 µg/mL) | 10000 µM (≈ 901 µg/mL) | > 35000 µM | ≥ 26 fold | < 50000 µM | 2000 µM (≈ 180 µg/mL) | 2000 µM (≈ 180 µg/mL) | – | Concentration at which the ΔacsA mutant was able to grow without inhibition ([5]; ΔacsA mutant): > 500 mM
CC(=O)O [acetate, reference compound] | – | has an activity | – | – | – | – | – | – | – | – | –
C=CC(=O)O [acrylic acid] | 15 µM (≈ 1.08 µg/mL) | has an activity | 25 µM (≈ 1.8 µg/mL) | 25 µM (≈ 1.8 µg/mL) | 50 µM (≈ 3.6 µg/mL) | ≥ 2.800 fold | 70000 µM (≈ 5040 µg/mL) | 3 µM (≈ 0.216 µg/mL) | 3 µM (≈ 0.216 µg/mL) | 50 µM (≈ 3.6 µg/mL) | Increase in tolerance over WT PCC 7002 MIC values ([8]; PCC 7002 A^+ vs WT): about 280 fold; MIC ([8]; Synechococcus, Table 1, strain isolated from agar plate containing 5 mM acrylic acid): 7000 µM (≈ 504 µg/mL); Inhibitory concentration ([3]; growth by OD730): less than 5 mM; pH dependence of toxicity ([3]; toxicity increasing with decreasing pH): pH dependent; pKa [9]: 4.35; MIC ([5]; Synechococcus, read-out: Minimum inhibitory concentration): 70000 µM; MIC [10]: 70000 µM (≈ 5040 µg/mL); MIC [11]: 7000 µM (≈ 504 µg/mL)
CCC(=O)O [propionic acid] | – | has an activity | – | 4000 µM (≈ 296 µg/mL) | – | ≥ 100 fold | – | – | 250 µM (≈ 18.5 µg/mL) | 250 µM (≈ 18.5 µg/mL) | MIC ([3]; SP.PCC7002, Table 1, pH of about 8, no increase in OD730, read-out: Minimum inhibitory concentration): 4000 µM (≈ 296 µg/mL); MIC ([4]; SP.PCC6803, Table 1, pH of about 8, no increase in OD730, read-out: Minimum inhibitory concentration): 250 µM (≈ 18.5 µg/mL); MIC ([7]; SP.PCC7942, Table 1, pH of about 8, no increase in OD730, read-out: Minimum inhibitory concentration): 250 µM (≈ 18.5 µg/mL)
